This passage reports IC50 results from article PMC12044090 (EJNMMI Research, 2025).

This test has as its target T1, FAP (HT1080-hFAP cells) (Homo sapiens, UniProt Q12884).
T1 sequence (Q12884 1-760): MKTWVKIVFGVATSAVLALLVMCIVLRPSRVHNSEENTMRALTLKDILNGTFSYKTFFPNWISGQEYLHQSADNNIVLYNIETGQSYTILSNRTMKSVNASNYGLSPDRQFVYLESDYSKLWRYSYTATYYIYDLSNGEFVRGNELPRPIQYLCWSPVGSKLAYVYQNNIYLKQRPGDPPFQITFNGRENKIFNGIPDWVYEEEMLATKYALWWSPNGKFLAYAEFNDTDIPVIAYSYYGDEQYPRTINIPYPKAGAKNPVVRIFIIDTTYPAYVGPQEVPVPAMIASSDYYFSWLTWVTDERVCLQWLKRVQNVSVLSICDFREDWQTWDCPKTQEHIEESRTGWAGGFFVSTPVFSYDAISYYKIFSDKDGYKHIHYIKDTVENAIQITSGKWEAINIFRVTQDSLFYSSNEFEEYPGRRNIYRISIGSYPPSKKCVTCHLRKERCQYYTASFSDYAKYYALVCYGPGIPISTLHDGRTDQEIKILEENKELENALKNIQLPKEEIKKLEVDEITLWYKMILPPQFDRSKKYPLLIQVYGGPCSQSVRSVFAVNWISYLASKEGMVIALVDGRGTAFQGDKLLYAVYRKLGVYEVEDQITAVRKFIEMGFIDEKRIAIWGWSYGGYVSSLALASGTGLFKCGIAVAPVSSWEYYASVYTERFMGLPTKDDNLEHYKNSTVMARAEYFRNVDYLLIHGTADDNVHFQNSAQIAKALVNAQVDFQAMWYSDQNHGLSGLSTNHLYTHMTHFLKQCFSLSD
As to the kind of experiment: Affinity assay: competition against [68Ga]Ga-FAP2286 in HT1080-hFAP cells. The class given is binding.

The term IC50 denotes the concentration needed to halve the response being measured. Lower therefore signals greater potency. `CCCCCC(=O)N[C@H]1CSCc2cc(CSCCNC(=O)CCCCCNC(=O)CC[C@H](NC(=O)CCC(C(=O)O)N3CCN(CC(=O)O)CCN(CC(=O)O)CCN(CC(=O)O)CC3)C(=O)NCCCOc3ccc4nccc(C(=O)NCC(=O)N5CC(F)(F)C[C@H]5C#N)c4c3)cc(c2)CSC[C@@H](C(=O)O)NC(=O)[C@H](Cc2ccccc2)NC(=O)[C@H](CCC(N)=O)NC(=O)[C@H]([C@@H](C)O)NC(=O)[C@@H]2CCCN2C(=O)[C@@H]2CCCN2C1=O` (some centres unmarked) [BiFAPI]: the IC50 came out at 11.4 ± 1.66 nM. With `CCCCCC(=O)N[C@H]1CSCc2cc(CSCCNC(=O)CN3CCN(CC(=O)O)CCN(CC(=O)O)CCN(CC(=O)O)CC3)cc(c2)CSC[C@@H](C(=O)O)NC(=O)[C@H](Cc2ccccc2)NC(=O)[C@H](CCC(N)=O)NC(=O)[C@H]([C@@H](C)O)NC(=O)[C@@H]2CCCN2C(=O)[C@@H]2CCCN2C1=O` [FAP2286], the IC50 was 6.58 ± 1.6 nM.
